Consider 1 compound from ChEMBL document CHEMBL5108052, “Histone Deacetylase and Enhancer of Zeste Homologue 2 Dual Inhibitors Presenting a Synergistic Effect for the Treatment of Hematological Malignancies” (J Med Chem, 2022).

In data set [1] the test system is MV4-11. The experiment in a line: Induction of mitochondrial membrane potential in human MV4-11 cells assessed as reduction in red fluorescence intensity at 0.2 uM measured after 48 hrs by JC1 staining-based flow cytometry analysis (reference value: 98.8%). The format is functional. On the set-up: scale not given: the % may be the effect or the level left. For orientation: In flow cytometry, cells or beads pass a laser one at a time.

The subject of data set [2] is MV4-11. Kind of data set: Induction of apoptosis in human MV4-11 cells assessed as late apoptotic cells at 0.1 uM measured after 48 hrs by Annexin V/7-AAD-dual staining based flow cytometric analysis (reference value: 1.1 %). The format is functional.
Data set [3] is described as follows: Binding affinity to recombinant PRC2 complex (unknown origin) incubated for 90 seconds by surface plasmon resonance assay. Also on record: species or system Homo sapiens. For orientation: Surface plasmon resonance follows binding to a sensor surface in real time, without labels.
Data set [4] concerns MV4-11. The experiment in a line: Induction of apoptosis in human MV4-11 cells assessed as early apoptotic cells at 0.2 uM measured after 48 hrs by Annexin V/7-AAD-dual staining based flow cytometric analysis (reference value: 2.2 %). It counts as functional.
Data set [5] relates to MV4-11. Kind of data set: Induction of apoptosis in human MV4-11 cells assessed as necrotic cells at 0.2 uM measured after 48 hrs by Annexin V/7-AAD-dual staining based flow cytometric analysis (reference value: 0.3 %). The format is functional.
Data set [6] has as its target T1, Protein deacetylase HDAC6 (Homo sapiens, UniProt Q9UBN7).
T1 sequence (Q9UBN7 whole entry): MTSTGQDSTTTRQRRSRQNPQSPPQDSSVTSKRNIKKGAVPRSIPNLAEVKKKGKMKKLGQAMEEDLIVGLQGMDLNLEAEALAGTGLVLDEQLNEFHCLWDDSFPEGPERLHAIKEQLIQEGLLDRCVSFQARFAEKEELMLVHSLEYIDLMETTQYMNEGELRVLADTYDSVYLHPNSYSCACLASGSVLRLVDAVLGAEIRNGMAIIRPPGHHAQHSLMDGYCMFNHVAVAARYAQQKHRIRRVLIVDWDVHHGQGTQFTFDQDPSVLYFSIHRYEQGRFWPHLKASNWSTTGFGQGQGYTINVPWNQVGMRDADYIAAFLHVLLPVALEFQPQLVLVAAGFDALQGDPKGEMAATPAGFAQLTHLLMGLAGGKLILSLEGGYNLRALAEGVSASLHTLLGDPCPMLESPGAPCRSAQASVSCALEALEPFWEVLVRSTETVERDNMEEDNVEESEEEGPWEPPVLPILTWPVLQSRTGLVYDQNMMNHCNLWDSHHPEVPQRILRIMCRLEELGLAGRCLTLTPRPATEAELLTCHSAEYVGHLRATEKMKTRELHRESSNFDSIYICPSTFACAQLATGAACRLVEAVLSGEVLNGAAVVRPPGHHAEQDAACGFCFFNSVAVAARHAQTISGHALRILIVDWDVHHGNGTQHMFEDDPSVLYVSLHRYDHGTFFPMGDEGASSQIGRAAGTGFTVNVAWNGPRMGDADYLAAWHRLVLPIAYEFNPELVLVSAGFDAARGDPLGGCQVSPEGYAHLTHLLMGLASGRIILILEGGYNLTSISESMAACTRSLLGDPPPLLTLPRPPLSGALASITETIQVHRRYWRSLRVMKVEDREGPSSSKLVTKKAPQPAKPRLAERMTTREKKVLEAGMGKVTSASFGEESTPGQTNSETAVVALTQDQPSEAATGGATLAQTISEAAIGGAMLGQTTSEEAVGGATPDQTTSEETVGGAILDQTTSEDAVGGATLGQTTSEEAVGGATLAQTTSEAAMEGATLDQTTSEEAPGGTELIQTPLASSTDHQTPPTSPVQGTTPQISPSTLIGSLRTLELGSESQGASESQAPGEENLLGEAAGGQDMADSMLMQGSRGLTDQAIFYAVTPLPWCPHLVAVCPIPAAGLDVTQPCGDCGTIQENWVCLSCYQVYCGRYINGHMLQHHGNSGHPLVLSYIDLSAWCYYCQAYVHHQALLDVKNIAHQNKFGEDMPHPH
Kind of data set: Inhibition of HDAC6 (unknown origin) preincubated for 5 mins followed by substrate addition and measured after 30 mins by multimode microplate reader analysis.

The test system of data set [7] is MV4-11. The experiment in a line: Induction of mitochondrial membrane potential in human MV4-11 cells assessed as reduction in red fluorescence intensity at 0.4 uM measured after 48 hrs by JC1 staining-based flow cytometry analysis (reference value: 98.8%). It counts as functional. Also on record: scale not given: the % may be the effect or the level left.
Data set [8] can be described thus: Metabolic stability in human liver microsomes assessed as half life measured after 5 mins in presence of NADPH and UDPGA by LC-MS/MS analysis. It counts as ADME, Microsome. (Liver microsomes are vesicles of endoplasmic reticulum, rich in cytochrome P450 enzymes.)
Data set [9] has as its system MV4-11. The experiment in a line: animal or person. It counts as functional, Homo sapiens. As to conditions: Mus musculus, MV4-11, 480 h, route ip, time 20 day, read-out: TGI.
The target of data set [10] is T2, Polyamine deacetylase HDAC10 (Homo sapiens, UniProt Q969S8).
T2 sequence (Q969S8 whole entry): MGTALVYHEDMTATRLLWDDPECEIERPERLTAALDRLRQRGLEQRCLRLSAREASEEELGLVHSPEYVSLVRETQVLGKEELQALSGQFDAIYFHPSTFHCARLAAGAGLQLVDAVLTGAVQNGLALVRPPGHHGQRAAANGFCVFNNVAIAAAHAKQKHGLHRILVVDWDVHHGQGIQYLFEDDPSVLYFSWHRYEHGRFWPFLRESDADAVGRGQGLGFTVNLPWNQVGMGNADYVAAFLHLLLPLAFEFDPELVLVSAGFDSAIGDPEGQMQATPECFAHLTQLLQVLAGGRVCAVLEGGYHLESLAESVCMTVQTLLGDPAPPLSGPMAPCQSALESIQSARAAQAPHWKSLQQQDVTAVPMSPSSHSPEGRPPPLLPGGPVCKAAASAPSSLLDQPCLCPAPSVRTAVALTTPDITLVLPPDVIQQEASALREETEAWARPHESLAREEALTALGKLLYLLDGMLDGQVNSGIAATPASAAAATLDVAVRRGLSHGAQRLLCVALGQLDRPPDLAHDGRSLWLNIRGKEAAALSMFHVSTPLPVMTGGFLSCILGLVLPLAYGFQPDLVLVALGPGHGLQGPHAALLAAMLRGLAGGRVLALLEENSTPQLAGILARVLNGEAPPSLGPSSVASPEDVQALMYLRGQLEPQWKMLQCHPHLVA
Kind of data set: Inhibition of HDAC10 (unknown origin) incubated for 2 hrs by Multimode microplate reader analysis.

The species entered for data set [11] is Homo sapiens. As to conditions: time 90.0 sec.
Data set [12] concerns MV4-11. Kind of data set: Induction of apoptosis in human MV4-11 cells assessed as viable cells at 0.4 uM measured after 48 hrs by Annexin V/7-AAD-dual staining based flow cytometric analysis (reference value: 96.4 %). It counts as functional. Conditions: read-out: Activity.
Data set [13] deals with MV4-11. The experiment in a line: Induction of apoptosis in human MV4-11 cells assessed as late apoptotic cells at 0.4 uM measured after 48 hrs by Annexin V/7-AAD-dual staining based flow cytometric analysis (reference value: 1.1 %). It counts as functional.
Data set [14] relates to MV4-11. The experiment in a line: Induction of apoptosis in human MV4-11 cells assessed as viable cells at 0.2 uM measured after 48 hrs by Annexin V/7-AAD-dual staining based flow cytometric analysis (reference value: 96.4 %). It counts as functional. Conditions: read-out: Activity.
Data set [15] relates to MV4-11. The experiment in a line: Induction of apoptosis in human MV4-11 cells assessed as late apoptotic cells at 0.2 uM measured after 48 hrs by Annexin V/7-AAD-dual staining based flow cytometric analysis (reference value: 1.1 %). The format is functional.

For orientation: Kd means the concentration at which binding is half-saturated. The term IC50 denotes the concentration needed to halve the response being measured. By half-life is commonly meant the time needed for the level to fall by half in the phase considered. With `Cc1cc(C)c(CNC(=O)c2cc(-c3ccc(N4CCN(c5ncc(C(=O)NO)cn5)CC4)nc3)cc3c2cnn3C(C)C)c(=O)[nH]1`, the Activity worked out at 84.3% in data set [1]; 4.4% in data set [2]; 10.3% in [4]; 2% in data set [5]; 72% in data set [7]; 17.1% in [13]. For the same compound, the Activity in data set [15] was 11.1%. Moreover, the dissociation constant Kd in data set [3] was 39 nM. Further, the IC50 in data set [6] is 700 nM; in data set [10], 1470 nM. In addition, in [8], the half-life amounted to 15.3 min. The inhibition in vivo at 100 mg/kg in data set [9] was found to be 82%. Further, the Ka in [11] was 2.18 10^5/M/s. In [12], the viability at 0.4 µM is 53.8%. Further, the viability at 0.2 µM in data set [14] is 74%.
